Consider twelve compounds from patent US9273017B2, “(Thio)morpholine derivatives as S1P modulators” (ABBVIE BAHAMAS LIMITED, priority 2009, dated 2016).

Structures can show the parent of a compound that is named as a salt.

The target in one data set is T1, human S1P5 receptor (Homo sapiens, UniProt Q9H228).
T1 construct: host or cells: CHO (AequoScreen recombinant cell line, co-expressing mitochondrially targeted apo-aequorin)
Kind of data set: In vitro functional activity (agonism), CHO-human-S1P5-Aequorin assay. The conditions noted are these: for EC50: read-out: S1P5 pEC50 (converted). The format is cell-based. The source says:
In Vitro Functional Activity (Agonism) on Human S1P5 Receptors
(§1) The CHO-human-S1P5-Aeqorin assay was bought from Euroscreen, Brussels (Euroscreen, Technical dossier, Human Lysophospholid S1P5 (Edg8) receptor, DNA clone and CHO AequoScreen™ recombinant cell-line, catalog no: ES-593-A, September 2006). Human-S1P5-Aequorin cells express mitochondrial targeted apo-Aequorin. Cells have to be loaded with coelanterazine, in order to reconstitute active Aequorin. After binding of agonists to the human S1P5 receptor the intracellular calcium concentration increases and binding of calcium to the apo-Aequorin/coelenterazine complex leads to an oxidation reaction of coelenterazine, which results in the production of apo-Aequorin, coelenteramide, CO2 and light (λmax 469 nm). This luminescent response is dependent on the agonist concentration. Luminescence is measured using the MicroBeta Jet (Perkin Elmer). Agonistic effects of compounds are expressed as pEC50. Compounds were tested at a 10 points half log concentration range, and 3 independent experiments were performed in single point's measurements.

Another data set addresses T2, human S1P3 receptor (Homo sapiens, UniProt Q99500).
T2 construct: cell line established at Solvay Pharmaceuticals; host or cells: CHO K1 (CHO/Gα16/AEQ/h-S1P3)
Description: In vitro functional activity (agonism), CHO-human-S1P3-Aequorin assay. The format is cell-based. The conditions noted are these: for EC50: read-out: S1P3 pEC50 (converted).
Source text: In Vitro Functional Activity (Agonism) on Human S1P3 Receptors
The CHO-human-S1P3-Aeqorin assay (CHO/Gα16/AEQ/h-S1P3) was established at Solvay Pharmaceuticals. The plasmid DNA coding for the S1P3 receptor (accession number in GenBank NM_005226 was purchased from UMR cDNA resource Centre (Rolla, Mo.). The pcDNA3.1/hS1P3 construct carrying the mitochondrially targeted apo-Aeqorin and Gα16 protein was transfected in CHO K1 cell-line.
as §1, with “Human-S1P3-Aequorin” for “The CHO-human-S1P5-Aeqorin assay was bought from Euroscreen, Brussels (Euroscreen, Technical dossier, Human Lysophospholid S1P5 (Edg8) receptor, DNA clone and CHO AequoScreen™ recombinant cell-line, catalog no: ES-593-A, September 2006). Human-S1P5-Aequorin”, “S1P3” for “S1P5”

For a further data set, the target named is T3, human S1P1 (Homo sapiens, UniProt P21453).
T3 construct: host or cells: CHO-K1
T3 sequence (P21453 whole entry): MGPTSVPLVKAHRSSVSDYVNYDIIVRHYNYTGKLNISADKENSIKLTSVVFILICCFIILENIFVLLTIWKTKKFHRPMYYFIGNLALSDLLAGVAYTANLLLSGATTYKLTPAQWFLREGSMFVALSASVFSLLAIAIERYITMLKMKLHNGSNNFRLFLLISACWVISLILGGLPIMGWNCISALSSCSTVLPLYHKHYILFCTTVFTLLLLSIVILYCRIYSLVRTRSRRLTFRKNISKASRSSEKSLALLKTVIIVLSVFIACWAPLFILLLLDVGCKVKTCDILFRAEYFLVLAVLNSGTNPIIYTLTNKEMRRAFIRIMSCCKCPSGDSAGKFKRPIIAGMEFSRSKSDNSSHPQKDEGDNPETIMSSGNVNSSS
Kind of data set: In vitro functional activity (agonism), CHO-K1-human S1P1 cAMP assay. The data set is classed as cell-based. The settings on record: read-out: S1P1 pEC50 (converted). The protocol:
In Vitro Functional Activity (Agonism) on Human S1P1 Receptors
The CHO-K1-Human S1P1-c-AMP assay was performed at Euroscreenfast, Brussels (Euroscreen, Human S1P1 coupling Gi/o), (Edg1) receptor, catalog no: FAST-0197C, December 2009).
Recombinant CHO-K1 cells expressing human S1P1, grown to mid-log Phase in culture media without antibiotics, detached, centrifuged and re-suspended. For agonist testing cells are mixed with compound and Forskolin and incubated at room temperature. Cells are lyses and cAMP concentration are estimated, according to the manufacturer specification, With the HTRF kit from CIS-BIO International (cat no 62AM2PEB).
Agonistic effects of compounds are expressed as a percentage of the activity of the reference compound at its EC100 concentration, EC50) is calculated and results are reported as pEC50. Compounds were tested at a 10 points half log concentration range duplicated in 1 experiment.

T2 sequence (Q99500 whole entry): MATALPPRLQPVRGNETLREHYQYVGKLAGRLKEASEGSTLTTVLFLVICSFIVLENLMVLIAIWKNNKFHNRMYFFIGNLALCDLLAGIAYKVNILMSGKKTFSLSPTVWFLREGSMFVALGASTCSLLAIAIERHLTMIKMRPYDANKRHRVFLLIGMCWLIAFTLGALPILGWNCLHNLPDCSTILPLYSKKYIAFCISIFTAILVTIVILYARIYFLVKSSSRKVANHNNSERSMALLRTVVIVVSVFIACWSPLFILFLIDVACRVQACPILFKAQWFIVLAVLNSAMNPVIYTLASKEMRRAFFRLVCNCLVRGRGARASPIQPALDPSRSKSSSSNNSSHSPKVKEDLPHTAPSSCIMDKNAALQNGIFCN
T1 sequence (Q9H228 whole entry): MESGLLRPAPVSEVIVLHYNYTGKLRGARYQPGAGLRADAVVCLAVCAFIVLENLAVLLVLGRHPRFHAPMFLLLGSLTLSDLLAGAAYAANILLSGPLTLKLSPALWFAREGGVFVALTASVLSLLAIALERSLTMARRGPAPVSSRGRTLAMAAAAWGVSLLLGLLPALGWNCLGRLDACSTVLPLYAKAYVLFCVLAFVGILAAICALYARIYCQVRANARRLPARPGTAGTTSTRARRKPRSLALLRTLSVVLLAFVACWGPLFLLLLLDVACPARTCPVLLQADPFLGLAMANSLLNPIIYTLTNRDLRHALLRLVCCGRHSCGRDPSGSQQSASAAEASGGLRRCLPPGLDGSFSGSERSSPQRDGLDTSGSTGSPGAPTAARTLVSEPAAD

In the case of `CCCCCCCCOc1ccc(C2CN(CCC(=O)O)CCO2)cc1` (stereo not drawn) [Compound 41, 3-(2-(4-Octyloxy-phenyl)-morpholin-4-yl)-propionic acid hydro-chloride], the results for the EC50 at human S1P5 receptor, at human S1P3 receptor and on human S1P1 were 251 nM, 2510 nM and greater than 3160 nM, respectively.

Regarding `O=C(O)CCN1CCOC(c2ccc(OCc3c(Cl)cccc3C(F)(F)F)cc2)C1` (stereo not drawn) [Compound 153, 3-{2-[4-(2-Chloro-6-trifluoromethyl-benzyloxy)-phenyl]-morpholin-4-yl}-propionic acid hydrochloride], the EC50 on human S1P5 receptor was 100 nM; at human S1P3 receptor, greater than 10000 nM; on human S1P1 it was greater than 3160 nM.

`COc1cc(C2CN(CCC(=O)O)CCO2)ccc1OCc1ccccc1C(F)(F)F.Cl` (stereo not drawn) [Compound 66, 3-{2-[3-Methoxy-4-(2-trifluoromethyl-benzyloxy)-phenyl]-morpholin-4-yl}-propionic acid hydrochloride] showed a melting point of 170 to 172 °C. On human S1P5 receptor, the EC50 is 631 nM. In addition, the EC50 at human S1P3 receptor was greater than 10000 nM.

Consider `Cc1cc(OCc2c(Cl)cccc2Cl)ccc1C1CN(CCC(=O)O)CCO1` (stereo not drawn) [Compound 130, 3-{2-[4-(2,6-Dichloro-benzyloxy)-2-methyl-phenyl]-morpholin-4-yl}-propionic acid trifluoroacetic acid salt], for which the EC50 at human S1P5 receptor is 79.4 nM; at human S1P3 receptor, greater than 31600 nM; on human S1P1, greater than 3160 nM.

As for `O=C(O)CCN1CCOC(c2ccc(C(=O)Nc3c(Cl)cccc3Cl)cc2)C1` (stereo not drawn) [Compound 53, 3-{2-[4-(2,6-Dichloro-phenylcarbamoyl)-phenyl]-morpholin-4-yl}-propionic acid hydrochloride], the EC50 on human S1P5 receptor was 2000 nM; at human S1P3 receptor, greater than 10000 nM.

On to `CCc1cc(Cl)c(COc2ccc(C3CN(CCC(=O)O)CCO3)cc2)c(Cl)c1` (stereo not drawn) [Compound 164, 3-{2-[4-(2,6-Dichloro-4-ethyl-benzyloxy)-phenyl]-morpholin-4-yl}-propionic acid hydrochloride], for which the EC50 was 316 nM at human S1P5 receptor and 2000 nM at human S1P3 receptor.

Take `Cc1cc(OCc2ccc3ccccc3c2)ccc1C1CN(CCC(=O)O)CCO1` (stereo not drawn) [Compound 76, 3-{2-[2-Methyl-4-(naphthalen-2-ylmethoxy)-phenyl]-morpholin-4-yl}-propionic acid]: the EC50 was 2510 nM at human S1P5 receptor and greater than 10000 nM at human S1P3 receptor.

Take “3-{2-[4-(2,6-Dichloro-benzyloxy)-phenyl]-morpholin-4-yl}-2,2-di-fluoro-propionic acid triethylammonium salt [Compound 150]”: the “S1P5 pEC50” value on human S1P5 receptor worked out at 6.2. Besides, the “S1P3 pEC50” value on human S1P3 receptor is on record as less than 5.0.

With `CCCCc1ccc(COc2ccc(C3CN(CCC(=O)O)CCO3)c(C)c2)cc1` (stereo not drawn) [Compound 117, 3-{2-[4-(4-Butyl-benzyloxy)-2-methyl-phenyl]-morpholin-4-yl}-propionic acid], the EC50 at human S1P5 receptor is 3980 nM; at human S1P3 receptor it was greater than 10000 nM.

Regarding `O=C(O)CCN1CCOC(c2ccc(OCCCc3ccccc3)cc2)C1` (stereo not drawn) [Compound 16, 3-{2-[4-(3-Phenyl-propoxy)-phenyl]-morpholin-4-yl}-propionic acid trifluoroacetic acid salt], the EC50 was 1000 nM at human S1P5 receptor and 3980 nM at human S1P3 receptor.

As for `Cc1cccc2c1C(Oc1ccc(C3CN(CCC(=O)O)CCO3)cc1)CC2` (stereo not drawn) [Compound 220, 3-{2-[4-(7-Methyl-indan-1-yloxy)-phenyl]-morpholin-4-yl}-propionic acid], the melting point lay in the range of 134 to 139 °C. The EC50 on human S1P5 receptor is 158 nM. The EC50 at human S1P3 receptor is 251 nM.

In turn, `CCCCCCCCOc1cccc(C2CN(CCC(=O)O)CCO2)c1.Cl` (stereo not drawn) [Compound 231, 3-[2-(3-Octyloxy-phenyl)-morpholin-4-yl]-propionic acid hydrochloride] returned a melting point of 218 to 220 °C. Moreover, the EC50 on human S1P5 receptor was 251 nM. The EC50 at human S1P3 receptor was greater than 10000 nM.
